System: human osteoblast-like cells, MG-63
Experiment: Cell binding to complexed acidic phospholipid collagen composite (cell adherence and proliferation)
Assay type: cell-based
Conditions: MG-63 cell cultures; composite sterilized under UV light
Description: Before usage, the prepared composite was sterilized under UV light.

Substance: fibronectin
- cell adherence and proliferation: some cells remain in clumps and there appeared to be fewer cells that adhered compared to those exposed to either of the composite formulations

Reference: patent publication US20040076663A1, “Complexed-acidic-phospholipid-collagen composites for bone induction” (priority 2002, published 2004)
